Results taken from patent US9675574B2, “Composition comprising a combination of DHA and EPA for administration prior to commencement of chemotherapy” (Fresenius Kabi Deutschland GmbH, priority 2010, dated 2017).

What was measured:
[1] = test system: HT-29 colorectal cancer cells; assay: 15-day clonogenicity experiment, pretreatment before irradiation (Example 6); format: cell-based, human; settings: 48 h pretreatment with 20 μM to 100 μM, irradiation 2 to 6 Gy
Description: (§1) HT-29 colorectal cancer cells (ATCC number HTB-38) were cultured in Dulbecco's Modified Eagle's Medium (DMEM, product number D 5030, Sigma Chemie AG, Buchs, Switzerland) supplemented with 10% heat-inactivated fetal calf serum (FBS), 1 g/L D-glucose, 3.7 g/L sodium bicarbonate and 0.1 g/L penicillin-streptomycin (all additives from Life Technologies Inc., Grand Island, N.Y.). The cells were cultured at 37° C. in a humidified atmosphere with a 5% CO2 content and kept in the exponential growth phase by twice weekly subculturing. The cultures were tested for mycoplasma infection using the MycoAlert Detection Kit (product number LT07-118, Cambrex, Verviers, Belgium).
The cytotoxic effect of a two-day (48 hours) pretreatment of HT-29 cells with 0 μM, 20 μM, 50 μM or 100 μM DHA or EPA on irradiation of the cells at 0 Gy, 2 Gy, 4 Gy or 6 Gy was examined in a 15-day clonogenicity experiment.
To this end, the culture medium of the cells was replaced with medium which contained the relevant concentrations (0 μM, 20 μM, 50 μM or 100 μM) of DHA or EPA. Controls were cultured in medium without EPA and without DHA. […] The cells were then detached from the culture vessel by means of trypsinization (1× trypsin-EDTA, Life Technologies Inc., Grand Island, N.Y.), resuspended and counted. […] The surviving cell fraction was calculated with reference to the untreated controls (S/S0).

HT-29 = assay: 15-day clonogenicity experiment, treatment prior to versus after irradiation (Example 7); format: cell-based, human; settings: treatment prior to irradiation (A) versus untreated controls (C) and treatment after irradiation (B); for formation of colonies: 20-100 μM, 48 h
Description: as §1, with “Human” for “HT-29 colorectal”, “cell lines (HT-29; ATCC” for “cells (ATCC”, “are” for “were”, “NY).” for “N.Y.).”
The cytotoxic effect of treatment of the cells with DHA, EPA, MCTs and iron on irradiation of the cells at 0 Gy, 2 Gy, 4 Gy or 6 Gy is examined in a 15-day clonogenicity experiment.
Firstly, the influence of 0 μM, 20 μM, 50 μM or 100 μM DHA or EPA in the case of treatment of the cells (A) prior to the irradiation compared to the treatment of the cells after the irradiation (B) is determined. Cells untreated with EPA or DHA, which are also irradiated, serve as a control (C).
In the case of the cells which are treated with EPA or DHA prior to the irradiation (A), the culture medium of the cells is replaced with medium containing the relevant concentrations (0 μM, 20 μM, 50 μM or 100 μM) of DHA or EPA. The cells are cultured for 48 hours in the medium, and then irradiated with an individual radiation dose of 0 Gy (control), 2 Gy, 4 Gy or 6 Gy in an X-ray 6 MV instrument.
In the case of cells which are treated with EPA or DHA after the irradiation (B) and in the case of the control cells (C), a media change is carried out 48 hours prior to the irradiation; the cells receive normal culture medium. After 48 hours, the cells are irradiated with an individual radiation dose of 0 Gy (control), 2 Gy, 4 Gy or 6 Gy in an X-ray 6 MV instrument.
After the irradiation, the cells are then detached from the culture vessel by means of trypsinization (1× trypsin-EDTA, Life Technologies Inc., Grand Island, NY), resuspended and counted. The cells are subsequently serially diluted according to a standard protocol and seeded in 100×20 mm cell culture dishes containing 10 mL of medium in a cell count which leads to the formation of about 200 colonies. Cells of groups A and C are seeded in normal culture medium, and cells of group B are seeded in medium containing the relevant concentrations (0 μM, 20 μM, 50 μM or 100 μM) of DHA or EPA.
After 48 hours, all cells are subjected to a media change, after which all cells are cultured in normal culture medium.
After a total of 14 days of incubation at 37° C., the vessels are washed with phosphate-buffered saline (PBS, Life Technologies Inc., Grand Island, N.Y.), fixed, and stained with a 0.5% crystal violet solution in methanol/glacial acetic acid (3:1, v/v). The surviving cell fraction is calculated with reference to the untreated controls (S/S0).

[2] = test system: colorectal cancer cell lines, breast cancer cell lines and lung cancer cell lines; assay: Clonogenicity experiment with further tumor cell lines, pre- versus posttreatment (Example 7); format: cell-based; settings: irradiation
Description: The experiment is carried out analogously with further tumor cell lines (colorectal cancer cell lines, breast cancer cell lines and lung cancer cell lines).

| SMILES | effect on survival of HT-29 cells in combination with irradiation [1] | size of colonies formed (HT-29) | surviving cell fraction (S/S0) (HT-29) | formation of colonies (HT-29) | cytotoxic effect of pretreatment compared to posttreatment [2] |
| --- | --- | --- | --- | --- | --- |
| CC/C=C\C/C=C\C/C=C\C/C=C\C/C=C\C/C=C\CCC(=O)O [DHA, (4Z,7Z,10Z,13Z,16Z,19Z)-docosa-4,7,10,13,16,19-hexaenoic acid] | synergistic effect | colonies formed are smaller | also smaller | fewer colonies | greater cytotoxic effect |
| CC/C=C\C/C=C\C/C=C\C/C=C\C/C=C\CCCC(=O)O [EPA, (5Z,8Z,11Z,14Z,17Z)-eicosa-5,8,11,14,17-pentaenoic acid] | synergistic effect | colonies formed are smaller | also smaller | fewer colonies | greater cytotoxic effect |
